Measurements from patent publication US7824866B2, “Ligand for G-protein coupled receptor GPR72 and uses thereof” (Euroscreen S.A., priority 2006, dated 2010).

biological target: T1, human GPR72 (Homo sapiens, UniProt Q9NYM4); assay: aequorin intracellular calcium release assay, CHO-K1 cells expressing human GPR72; format: cell-based; parameters: expressed in transfected cells; host or cells: CHO-K1 cells coexpressing mitochondrial apoaequorin and a G alpha subunit (Gα16); settings: CHO-K1 cells coexpressing human GPR72 and apoaequorin; mock-transfected cells as control; FIG. 5
Protocol: (§1) The aequorin assay takes advantage of the responsiveness of mitochondrial apoaequorin to intracellular calcium release induced by the activation of GPCRs (Stables et al., 1997, Anal. Biochem. 252:115-126; Detheux et al., 2000, J. Exp. Med., 192 1501-1508; both of which are incorporated herein by reference). Briefly, GPR72 polypeptide-expressing clones are transfected to coexpress mitochondrial apoaequorin and Gα16. Cells are incubated with 5 μM Coelenterazine H (Molecular Probes) for 4 hours at room temperature, washed in DMEM-F12 culture medium and resuspended at a concentration of 0.5×10^6 cells/ml. Cells are then mixed with test agonist molecules and light emission by the aequorin is recorded with a luminometer for 30 sec. Results are expressed as Relative Light Units (RLU). Controls include assays using membranes isolated from cells not expressing GPR72 polypeptide (mock transfected), in order to exclude possible non-specific effects of the candidate compound.
GPR72 expressing clones have been obtained by transfection of CHO-K1 cells to coexpressing mitochondrial apoaequorin and […], limiting dilution and selection by RT-PCR. Positive clones were used for biological extract library screening with porcine spleen extracts prepared as described above. A functional assay based on the luminescence of mitochondrial aequorin intracellular Ca^2+ release (Stables et al., 1997, Anal. Biochem. 252:115-126; incorporated herein by reference) was performed as described (Detheux et al., 2000, J. Exp. Med., 192 1501-1508; incorporated herein by reference). Briefly, cells were collected from plates in PBS containing 5 mM EDTA, pelleted and resuspended at 5×10^6 cells/ml in DMEM-F12 medium. Cells were incubated with 5 μM Coelenterazine H (Molecular Probes) for 4 hours at room temperature. Cells were then washed in DMEM-F12 medium and resuspended at a concentration of 0.5×10^6 cells/ml. Cells were then mixed with test agonist peptides or plates containing tissue extracts and the light emission was recorded for 30 sec using a Microlumat luminometer (Perkin Elmer). Results are expressed as Relative Light Units (RLU).
After being identified from active porcine […] fraction, ability of arachidonic acid to trigger intracellular calcium release was tested on CHO-K1 cell lines coexpressing the human or the mouse GPR72 receptor and apoaequorin. We have used the aequorin assay as previously described in Detheux et al. (2000) J exp Med. 192, 1501-1508. […] Arachidonic acid was also able to activate specifically the mouse GPR72 at concentration around 5 micromolar (FIG. 6).
PUFAs were tested on CHO-K1 cells stably expressing the human GPR72 for their ability to trigger intracellular calcium using aequorin. Obtained EC50 are in the 1-20 μM range (FIG. 7).

T1 sequence (Q9NYM4 17-423): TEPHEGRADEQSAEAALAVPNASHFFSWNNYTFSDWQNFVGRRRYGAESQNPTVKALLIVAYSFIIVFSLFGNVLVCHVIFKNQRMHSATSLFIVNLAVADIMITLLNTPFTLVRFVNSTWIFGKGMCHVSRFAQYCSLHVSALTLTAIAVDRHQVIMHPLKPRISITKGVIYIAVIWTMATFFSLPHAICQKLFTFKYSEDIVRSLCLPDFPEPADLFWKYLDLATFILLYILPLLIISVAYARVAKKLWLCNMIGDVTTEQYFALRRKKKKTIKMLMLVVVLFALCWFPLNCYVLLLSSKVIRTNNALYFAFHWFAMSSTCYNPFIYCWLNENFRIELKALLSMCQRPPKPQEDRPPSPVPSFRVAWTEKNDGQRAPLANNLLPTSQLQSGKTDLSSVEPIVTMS

Structure (SMILES) | concentration at which the human GPR72 is specifically activated
CCCCC/C=C\C/C=C\C/C=C\C/C=C\CCCC(=O)O [arachidonic acid, 5,8,11,14-all-cis-eicosatetraenoic acid] | around 5 micromolar

same assay, conditions: human GPR72 receptor; FIG. 8

Structure (SMILES) | activity on GPR72 (structure-activity relationship)
CCCCC/C=C\C/C=C\C/C=C\C/C=C\CCCC(=O)NCCS(=O)(=O)O [N-arachidonoyl-L-taurine] | active
CCCCC/C=C\C/C=C\C/C=C\C/C=C\CCCC(=O)NCC(=O)O [N-arachidonoyl-glycine] | active
CCCCC/C=C\C/C=C\C/C=C\C/C=C\CCCC(=O)OC [arachidonic acid methyl ester] | not active
CCCCC/C=C\C/C=C\C/C=C\C/C=C\CCCC(=O)O [arachidonic acid, 5,8,11,14-all-cis-eicosatetraenoic acid] | active

biological target: T2, mouse GPR72 (Mus musculus, UniProt P30731); assay: aequorin intracellular calcium release assay, CHO-K1 cells expressing mouse GPR72; format: cell-based; settings: CHO-K1 cells coexpressing mouse GPR72 and apoaequorin; FIG. 6
T2 construct: expressed in transfected cells; host or cells: CHO-K1 cells coexpressing apoaequorin
Protocol: as §1, with “Controls include assays using membranes isolated from cells not expressing GPR72 polypeptide (mock transfected), in order to exclude possible non-specific effects of the candidate compound.” left out
GPR72 expressing clones have been obtained by transfection of CHO-K1 cells to coexpressing mitochondrial apoaequorin and […], limiting dilution and selection by RT-PCR. […] A functional assay based on the luminescence of mitochondrial aequorin intracellular Ca^2+ release (Stables et al., 1997, Anal. Biochem. 252:115-126; incorporated herein by reference) was performed as described (Detheux et al., 2000, J. Exp. Med., 192 1501-1508; incorporated herein by reference). […] Results are expressed as Relative Light Units (RLU). […]

T2 sequence (P30731 18-423): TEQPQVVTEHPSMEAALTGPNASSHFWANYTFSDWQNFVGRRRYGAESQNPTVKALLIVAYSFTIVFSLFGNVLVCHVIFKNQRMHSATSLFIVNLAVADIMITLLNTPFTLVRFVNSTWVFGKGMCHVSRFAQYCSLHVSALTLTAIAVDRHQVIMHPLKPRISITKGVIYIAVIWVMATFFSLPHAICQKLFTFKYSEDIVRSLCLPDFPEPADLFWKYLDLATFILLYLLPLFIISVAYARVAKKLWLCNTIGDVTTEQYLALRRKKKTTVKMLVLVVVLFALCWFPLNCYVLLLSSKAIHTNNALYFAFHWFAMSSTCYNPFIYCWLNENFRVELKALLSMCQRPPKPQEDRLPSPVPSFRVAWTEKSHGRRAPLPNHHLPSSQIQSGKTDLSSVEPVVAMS

Structure (SMILES) | concentration at which the mouse GPR72 is specifically activated
CCCCC/C=C\C/C=C\C/C=C\C/C=C\CCCC(=O)O [arachidonic acid, 5,8,11,14-all-cis-eicosatetraenoic acid] | around 5 micromolar

biological target: T1, human GPR72; assay: Aequorin-based functional assay: intracellular calcium release (luminescence) in CHO-K1 cells stably expressing human GPR72, mitochondrial apoaequorin and Galpha16; format: cell-based; parameters: expressed in transfected cells; settings: not given

Structure (SMILES) | EC50 [µM]
CCCCC/C=C\C/C=C\C/C=C\C/C=C\CCCC(=O)O [Eicosa-5Z,8Z,11Z,14Z-tetraenoic acid] | 5
CCCCC/C=C\C/C=C\C/C=C\C/C=C\CCCC(=O)NCC(=O)O [N-arachidonoyl-glycine] | 3.5
CC/C=C\C/C=C\C/C=C\CCCCCCCC(=O)O [Octadeca-9Z,12Z,15Z-trienoic acid] | 4.7

same assay, conditions: Figure 8, SAR of arachidonic acid on human GPR72 activation; CHO-K1 cells, aequorin; read-out: GPR72 EC50

Structure (SMILES) | EC50 [µM]
CC1=C(/C=C/C(C)=C\C=C\C(C)=C\C(=O)O)C(C)(C)CCC1 [9-cis-Retinoic acid] | 0.4
CC1=C(/C=C/C(C)=C/C=C/C(C)=C/C(=O)O)C(C)(C)CCC1 [All-trans-retinoic acid] | 86
CC/C=C\C/C=C\C/C=C\C/C=C\C/C=C\C/C=C\CCC(=O)O [Docosa-4Z,7Z,10Z,13Z,16Z,19Z-hexaenoic acid] | 2
CC/C=C\C/C=C\C/C=C\C/C=C\C/C=C\CCCCCC(=O)O [Docosa-7Z,10Z,13Z,16Z,19Z-pentaenoic acid] | 9.3
CC/C=C\C/C=C\C/C=C\CCCCCCCCCCCC(=O)O [Docosa-13Z,16Z,19Z-trienoic acid] | 25
CCCCC/C=C\C/C=C\C/C=C\C/C=C\CCCC(=O)NCC(O)CC(=O)O (stereo not drawn) [N-arachidonoyl-3-hydroxy-γ-aminobutyric acid] | 0.7
CCCCC/C=C\C/C=C\C/C=C\C/C=C\CCCC(=O)N[C@@H](C)C(=O)O [N-arachidonoyl-L-alanine] | 2.9
CCCCC/C=C\C/C=C\C/C=C\C/C=C\CCCC(=O)N[C@@H](CO)C(=O)O [N-arachidonoyl-L-serine] | 3
CCCCC/C=C\C/C=C\C/C=C\C/C=C\CCCC(=O)NCCS(=O)(=O)O [N-arachidonoyl-L-taurine] | 1.3
CCCCC/C=C\C/C=C\C/C=C\C/C=C\CCCC(=O)NCCCC(=O)O [N-arachidonoyl-γ-aminobutyric acid] | 4.3

Further lines, results first:

EC50 [µM] | Structure (SMILES)
3.3 | CC/C=C\C/C=C\C/C=C\C/C=C\C/C=C\CCCC(=O)O [Eicosa-5Z,8Z,11Z,14Z,17Z-pentaenoic acid]
6.3 | CCCCCCCC/C=C\C/C=C\C/C=C\CCCC(=O)O [Eicosa-5Z,8Z,11Z-trienoic acid]
6 | CC/C=C\C/C=C\C/C=C\C/C=C\CCCCCCC(=O)O [Eicosa-8Z,11Z,14Z,17Z-tetraenoic acid]
44 | CCCCC/C=C\C/C=C\C/C=C\CCCCCCC(=O)O [Eicosa-8Z,11Z,14Z-trienoic acid]
17.9 | CCCCC/C=C\C/C=C\CCCCCCCCCC(=O)O [Eicosa-11Z,14Z-dienoic acid]
0.8 | CCCCC/C=C\C/C=C\C/C=C\CCCCC(=O)O [Octadeca-6Z,9Z,12Z-trienoic acid]

same assay, conditions: Figure 9, additional PUFAs; CHO-K1 cells stably expressing human GPR72, aequorin; read-out: human GPR72 receptor EC50

Structure (SMILES) | EC50 [µM]
CC1=C(/C=C/C(C)=C/C=C/C(C)=C\C(=O)O)C(C)(C)CCC1 [13-cis-Retinoic acid] | 16
CCCCC/C=C\C/C=C\C/C=C\C/C=C\CCCCCC(=O)O [Docosa-7Z,10Z,13Z,16Z-tetraenoic acid] | 10

Results, then the compound that gave them:

EC50 [µM] | Structure (SMILES)
27 | CCCCCC#CCC#CCC#CCC#CCCCC(=O)O [Eicosa-5,8,11,14-tetraynoic acid]
12 | CCCCCCCCC#CCC#CCC#CCCCC(=O)O [Eicosa-5,8,11-triynoic acid]
25 | CC/C=C\C/C=C\C/C=C\CCCCCCCCCC(=O)O [Eicosa-11Z,14Z,17Z-trienoic acid]
74 | CC/C=C\C/C=C\C/C=C\C/C=C\CCCCC(=O)O [Octadeca-6Z,9Z,12Z,15Z-tetraenoic acid]

same assay, conditions: Figure 10, thiazolidinediones; CHO-K1 cells stably expressing human GPR72, aequorin; read-out: human GPR72 receptor EC50

EC50 [µM] | Structure (SMILES)
35 | CC1(COc2ccc(CC3SC(=O)NC3=O)cc2)CCCCC1 (stereo not drawn) [Ciglitazone]
25 | O=C1NC(=O)C(Cc2ccc3cc(OCc4ccccc4F)ccc3c2)S1 (stereo not drawn) [MCC-555]
